Source: patent US7303618B1, “Ink for ink-jet recording” (Brother Kogyo Kabushiki Kaisha, priority 2006, dated 2007)

Test: Ozone resistance (OD value reduction of printed patch)
Assay type: physicochemical
Conditions: discussion of Table 1
Excerpt: Each of the inks for ink-jet recording was filled into a desired ink cartridge, and the ink cartridge was attached to a digital multifunction device equipped with an ink-jet printer (DCP-110C, product of Brother Industries, Ltd.) to perform the printing evaluation. First, as an evaluation sample, a gradation sample of each cyan ink was printed on photo glossy paper (Model No. BP60GLA, product of Brother Industries, Ltd.) to prepare a patch having an initial OD value of 1.0. This patch was then subjected to an ozone resistance evaluation test using an Ozone Weather Meter OMS-H (product of Suga Test Instruments Co., Ltd.). That is, the patch was left to stand under the conditions of an ozone concentration of 1 ppm, a chamber temperature of 24° C. and a chamber humidity of 60% RH for 40 hours. Specifically, the color patch printed with each cyan ink and having an OD value of 1.0 before the test was then measured for an OD value after the ozone resistance evaluation test was completed. The OD value was measured by means of a Spectrolino (product of Gretag Macbeth) (light source: D65; viewing angle: 2°; Status A). […]
The obtained OD value reduction ratio was then evaluated according to the criteria below. When the OD value reduction ratio is less than 30%, the ozone resistance performance for general use is determined to be at an acceptable level. […]

Substance: C. I. Direct Blue 199 [Dye (2-C)]
- Ozone resistance (in words): poor
